The text below walks through data of US12410156B2, “Kinase inhibitors” (Insilico Medicine IP Limited, priority 2019, dated 2025).

One assay concerns the target T1, TNIK (Homo sapiens, UniProt Q9UKE5).
T1 construct: purchased Eurofins (Kinase Profiler service protocol)
Put plainly: TNIK enzymatic assay (radiometric 33P-ATP filter assay). To be noted: second table (TNIK, MAP4K4, Collagen Production Data); read-out: TNIK_IC50. The assay is classed as biochemical. Here is the method:
The compounds were studied for function as TNIK inhibitors to generate the data of Table 1. […] (specific activity and concentration as required). The reaction is initiated by the addition of the Mg/ATP mix. After incubation for 40 minutes at room temperature, the reaction is stopped by the addition of phosphoric acid to a concentration of 0.5%.

Another assay concerns the target MAP4K4 (h) (Homo sapiens, UniProt O95819). Kind of assay: MAP4K4 kinase assay (radiometric 33P-ATP filter assay). The assay is classed as biochemical. To be noted: read-out: MAP4K4_IC50. The method, then: (specific activity and concentration as required). The reaction is initiated by the addition of the Mg/ATP mix. After incubation for 40 minutes at room temperature, the reaction is stopped by the addition of phosphoric acid to a concentration of 0.5%.

In assay [1] the test system is Human hepatic stellate cell LX-2. Put plainly: LX-2 fibrosis assay, collagen production (Western blot). To be noted: LX-2 cells, stimulated with 4 ng/mL TGF-b for 48 hours. The format is cell-based. The method, then: Human hepatic stellate cell LX-2 were grown in DMEM (Invitrogen, 11960) supplied with 1% MEM Non-Essential Amino Acids (Invitrogen, 11140-050), 2% fetal bovine serum (Hyclone, SV30087.03), Penicillin (100 U/mL)-streptomycin (100 μg/mL) (Millipore, TMS-AB2-C) and 2 mM L-Glutamine (Invitrogen, 25030-001). After the cells grew in 12-well plates for 24 hours, the cell culture medium was changed to the same as above except using 0.4% fetal bovine serum. After 20 hour growth in the reduced serum medium, the cells were treated with indicated doses of compounds for 30 minutes. Subsequently, the cells were stimulated with 4 ng/mL TGF-b (R&D Systems, 240-B-002) for 48 hours. The cells were rinsed twice with DPBS before being harvested with 100 μL RIPA buffer (Sigma, R0278) supplemented with protease inhibitor cocktail (Roche, 04693132001) at 4° C. The total protein in each sample was quantified using BCA Protein Assay Kit (Pierce™, 23227) and equal amount of total protein of each sample was subject to Western blot analysis. Antibodies used were mouse anti-α-Actin (SPM332) ([…]), mouse anti-CTGF (E5) (sc-365970), and mouse anti-collagen α1 (3G3) (sc-293182), from Santa Cruz Biotechnologies; and mouse anti-GAPDH (6C5) (EMD Millipore, MAB374).
(In western blotting, separated proteins are transferred to a membrane and probed.)

T1 sequence (Q9UKE5 whole entry): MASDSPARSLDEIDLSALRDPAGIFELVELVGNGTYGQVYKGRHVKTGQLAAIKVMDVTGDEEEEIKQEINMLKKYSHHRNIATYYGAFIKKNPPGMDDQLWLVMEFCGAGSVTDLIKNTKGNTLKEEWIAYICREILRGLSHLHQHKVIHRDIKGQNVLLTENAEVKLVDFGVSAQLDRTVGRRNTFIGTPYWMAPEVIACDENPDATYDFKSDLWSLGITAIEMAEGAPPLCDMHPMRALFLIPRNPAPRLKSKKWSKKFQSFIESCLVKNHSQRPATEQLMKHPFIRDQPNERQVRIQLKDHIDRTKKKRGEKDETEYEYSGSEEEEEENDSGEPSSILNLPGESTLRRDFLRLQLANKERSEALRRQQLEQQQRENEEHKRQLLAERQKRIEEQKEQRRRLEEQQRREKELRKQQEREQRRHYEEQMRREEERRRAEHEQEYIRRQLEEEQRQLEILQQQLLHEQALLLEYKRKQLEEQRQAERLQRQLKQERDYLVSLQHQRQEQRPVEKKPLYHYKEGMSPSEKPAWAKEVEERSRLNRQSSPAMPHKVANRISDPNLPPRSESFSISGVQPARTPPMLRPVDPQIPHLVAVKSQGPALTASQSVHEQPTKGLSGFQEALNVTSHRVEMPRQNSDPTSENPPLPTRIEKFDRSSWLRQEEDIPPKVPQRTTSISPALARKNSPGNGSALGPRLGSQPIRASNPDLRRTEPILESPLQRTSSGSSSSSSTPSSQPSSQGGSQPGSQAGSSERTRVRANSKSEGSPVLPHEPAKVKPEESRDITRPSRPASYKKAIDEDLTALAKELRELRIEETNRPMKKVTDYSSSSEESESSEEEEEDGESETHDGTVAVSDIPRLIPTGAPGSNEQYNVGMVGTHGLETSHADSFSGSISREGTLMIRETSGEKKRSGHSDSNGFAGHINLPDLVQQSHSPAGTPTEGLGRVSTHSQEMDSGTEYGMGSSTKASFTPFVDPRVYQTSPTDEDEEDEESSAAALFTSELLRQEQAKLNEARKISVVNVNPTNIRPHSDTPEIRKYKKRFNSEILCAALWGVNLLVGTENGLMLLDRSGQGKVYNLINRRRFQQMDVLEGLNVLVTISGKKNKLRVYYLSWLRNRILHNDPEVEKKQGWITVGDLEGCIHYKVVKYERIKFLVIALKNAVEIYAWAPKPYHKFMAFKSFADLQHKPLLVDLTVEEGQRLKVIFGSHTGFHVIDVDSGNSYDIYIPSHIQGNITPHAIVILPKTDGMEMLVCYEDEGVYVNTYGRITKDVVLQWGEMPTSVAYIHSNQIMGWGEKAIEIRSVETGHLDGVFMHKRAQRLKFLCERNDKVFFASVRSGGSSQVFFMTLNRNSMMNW
Chain of MAP4K4 (h) (O95819 whole entry): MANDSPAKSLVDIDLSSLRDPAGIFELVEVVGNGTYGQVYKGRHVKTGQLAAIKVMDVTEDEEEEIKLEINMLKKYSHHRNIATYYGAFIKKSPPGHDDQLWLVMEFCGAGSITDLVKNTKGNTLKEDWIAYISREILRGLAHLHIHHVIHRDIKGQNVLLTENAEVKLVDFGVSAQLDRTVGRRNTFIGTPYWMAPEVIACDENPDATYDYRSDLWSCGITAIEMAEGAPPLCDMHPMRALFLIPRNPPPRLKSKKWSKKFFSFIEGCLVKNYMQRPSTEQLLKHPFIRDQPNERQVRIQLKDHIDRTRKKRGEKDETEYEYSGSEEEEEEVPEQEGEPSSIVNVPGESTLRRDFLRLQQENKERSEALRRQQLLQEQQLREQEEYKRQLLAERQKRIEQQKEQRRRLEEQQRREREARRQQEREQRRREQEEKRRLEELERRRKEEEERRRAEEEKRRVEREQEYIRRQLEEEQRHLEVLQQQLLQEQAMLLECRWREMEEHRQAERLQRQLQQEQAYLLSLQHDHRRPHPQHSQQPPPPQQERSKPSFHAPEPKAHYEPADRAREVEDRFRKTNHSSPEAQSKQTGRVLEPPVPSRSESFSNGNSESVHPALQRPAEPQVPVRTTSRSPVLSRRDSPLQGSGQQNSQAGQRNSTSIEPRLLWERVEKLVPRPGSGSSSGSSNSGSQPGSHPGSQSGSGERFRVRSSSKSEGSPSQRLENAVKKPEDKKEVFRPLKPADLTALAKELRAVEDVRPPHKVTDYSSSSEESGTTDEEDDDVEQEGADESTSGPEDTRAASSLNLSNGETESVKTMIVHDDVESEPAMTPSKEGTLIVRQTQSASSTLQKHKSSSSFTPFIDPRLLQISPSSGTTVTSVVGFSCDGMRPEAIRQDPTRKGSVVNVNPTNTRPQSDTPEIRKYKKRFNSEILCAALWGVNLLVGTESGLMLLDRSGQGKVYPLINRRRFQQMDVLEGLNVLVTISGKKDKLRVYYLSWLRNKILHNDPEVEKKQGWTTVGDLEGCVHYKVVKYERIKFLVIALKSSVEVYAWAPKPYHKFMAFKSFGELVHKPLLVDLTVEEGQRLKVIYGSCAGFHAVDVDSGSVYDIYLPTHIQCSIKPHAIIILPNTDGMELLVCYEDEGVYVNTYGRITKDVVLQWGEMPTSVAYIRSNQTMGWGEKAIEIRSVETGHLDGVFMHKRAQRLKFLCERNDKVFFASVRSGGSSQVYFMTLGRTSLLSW

For the compound `O=C(Nc1ccncc1F)c1ccc(-c2c(-c3ccc(F)cc3)ncn2[C@@H]2COC[C@H]2F)o1` (racemic) [Compound A-54, rac-5-(4-(4-fluorophenyl)-1-((3R,4S)-4-fluorotetrahydrofuran-3-yl)-1H-imidazol-5-yl)-N-(3-fluoropyridin-4-yl)furan-2-carboxamide], the figures for the IC50 on TNIK and on MAP4K4 (h) were 60.7 nM and 36.6 nM, respectively. For the same compound, in assay [1] (LX-2, 48 h), the EC50 (in general, the concentration that produces a half-maximal response) is 0.983 µM.
As to `CN1CCN(c2ccc(NC(=O)c3ccc(-c4c(-c5ccc(F)cc5)ncn4C4CCCC4)o3)c(F)c2)CC1` [Compound A-52, 4-(4-(5-(1-cyclopentyl-4-(4-fluorophenyl)-1H-imidazol-5-yl)furan-2-carboxamido)-3-fluorophenyl)-1-methylpiperazin-1-ium], the EC50 in assay [1] was found to be 0.042 µM.
Consider `O=C(Nc1ccncc1F)c1ccc(-c2c(-c3ccc(F)cc3)ncn2C2COCC2F)o1` (centres unmarked) [Compound A-53, 5-(4-(4-fluorophenyl)-1-(4-fluorotetrahydrofuran-3-yl)-1H-imidazol-5-yl)-N-(3-fluoropyridin-4-yl)furan-2-carboxamide], for which, in assay [1] (LX-2, 48 h), the EC50 came out at 1.98 µM.
